Patent publication US10508085B2, “Compounds and methods for IDO and TDO modulation, and indications therefor” (Plexxikon Inc., priority 2016, dated 2019)

Tests used:
[1] = target: T1, Human Indoleamine 2,3-dioxygenase (IDO) (Homo sapiens, UniProt P14902); assay: Human IDO enzymatic assay (kynurenine level); format: biochemical; conditions: 6 nM IDO, 10 μM L-Trp; geometric mean; read-out: IDO1 GMean: IC50 (μM) (Biochemical Assay)
T1 construct: His tag (N); made in house; host or cells: E. coli
In short: (§1)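 Reactions were stopped with TCA, converting N-formylkynurenine to kynurenine for quantitation, with IC50 by nonlinear regression. IDO: 6 nM enzyme, 10 μM L-Trp, 20 min RT. TDO: 1 nM enzyme, 350 μM L-Trp, 70 min RT, both in pH 6.5 buffer.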

[2] = target: T2, Human Tryptophan 2,3-dioxygenase (TDO) (Homo sapiens, UniProt P48775); assay: Human TDO enzymatic assay (kynurenine level); format: biochemical; conditions: 1 nM TDO, 350 μM L-Trp; geometric mean; read-out: TDO GMean: IC50 (μM) (Biochemical Assay)
T2 construct: His tag (N); made in house; host or cells: E. coli
In short: as §1

[3] = target: T3, human IDO (IDO1-expressing HEK293 cells) (Homo sapiens, UniProt P14902); assay: Cell based kynurenine assay, IDO1-expressing HEK293 cell clones; conditions: IDO1-expressing HEK293 cells, 24 hours, geometric mean; read-out: HEK293 IDO1 Kynurenine GMean IC50 (μM) (Cellular Assay)
T3 construct: expressed in transfected cells
In short: (§2)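 Steps: seed IDO1- or TDO-expressing HEK293 cells at 2.5×10^4 per well; add compound dilutions; incubate 24 h; transfer supernatant and determine kynurenine; derive IC50 via nonlinear regression of percent inhibition.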

[4] = target: T4, human TDO (TDO-expressing HEK293 cells) (Homo sapiens, UniProt P48775); assay: Cell based kynurenine assay, TDO-expressing HEK293 cell clones; conditions: TDO-expressing HEK293 cells, 24 hours, geometric mean; read-out: HEK293 TDO Kynurenine GMean IC50 (μM) (Cellular Assay)
T4 construct: expressed in transfected cells
In short: as §2

T1 sequence (P14902 whole entry): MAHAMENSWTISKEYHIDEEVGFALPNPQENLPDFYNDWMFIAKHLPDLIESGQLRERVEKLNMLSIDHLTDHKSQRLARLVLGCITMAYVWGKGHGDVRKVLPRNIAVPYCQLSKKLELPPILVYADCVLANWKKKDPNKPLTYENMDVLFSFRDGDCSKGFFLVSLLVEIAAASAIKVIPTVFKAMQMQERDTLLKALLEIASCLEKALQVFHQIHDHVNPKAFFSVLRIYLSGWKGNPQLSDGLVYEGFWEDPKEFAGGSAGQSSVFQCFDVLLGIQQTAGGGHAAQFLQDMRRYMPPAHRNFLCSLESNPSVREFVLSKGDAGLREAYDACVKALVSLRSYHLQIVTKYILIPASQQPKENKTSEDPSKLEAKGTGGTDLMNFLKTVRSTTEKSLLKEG
T3 sequence (P14902 whole entry): as above
T2 sequence (P48775 whole entry): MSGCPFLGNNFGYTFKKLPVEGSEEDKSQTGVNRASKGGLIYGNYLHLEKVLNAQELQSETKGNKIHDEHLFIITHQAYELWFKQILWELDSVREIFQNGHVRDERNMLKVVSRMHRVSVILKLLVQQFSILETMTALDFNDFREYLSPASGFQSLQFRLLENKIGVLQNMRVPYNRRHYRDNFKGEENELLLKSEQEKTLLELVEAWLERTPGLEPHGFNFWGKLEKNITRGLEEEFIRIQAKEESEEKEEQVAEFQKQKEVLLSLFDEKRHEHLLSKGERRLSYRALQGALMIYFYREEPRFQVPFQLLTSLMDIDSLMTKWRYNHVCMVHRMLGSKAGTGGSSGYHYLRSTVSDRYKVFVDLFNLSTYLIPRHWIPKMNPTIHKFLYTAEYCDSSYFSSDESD
T4 sequence (P48775 whole entry): as above

Row | SMILES | IC50 [1] [µM] | IC50 [2] [µM] | IC50 [3] [µM] | IC50 [4] [µM]
1 | CC(C)(C(O)c1cc(Cl)cc2cn[nH]c12)[C@H]1C[C@H]2CC[C@@H](C1)N2C(=O)NC1CC1 (stereo partly drawn) [Compound P-0439, (1R,3r,5S)-3-(1-(5-chloro-1H-indazol-7-yl)-1-hydroxy-2-methylpropan-2-yl)-N-cyclopropyl-8-azabicyclo [3.2.1]octane-8-carboxamide] | 0.0001 to 10 | 0.0001 to 10 | 0.0001 to 10 | 0.0001 to 10
2 | CC(C)(C(O)c1cc(Cl)cc2cn[nH]c12)[C@H]1C[C@H]2CC[C@@H](C1)N2C(=O)Nc1ccc(F)cc1 (stereo partly drawn) [Compound P-0440, (1R,3r,5S)-3-(1-(5-chloro-1H-indazol-7-yl)-1-hydroxy-2-methylpropan-2-yl)-N-(4-fluorophenyl)-8-azabicyclo[3.2.1] octane-8-carboxamide] | 0.0001 to 10 | 0.0001 to 10 | 0.0001 to 10 | 0.0001 to 10
3 | CC(C)(C1CCN(C(=O)CN2CCOCC2)CC1)C(O)c1cc(Cl)cc2cn[nH]c12 (stereo not shown) [Compound P-0441, 1-(4-(1-(5-chloro-1H-indazol-7-yl)-1-hydroxy-2-methylpropan-2-yl)piperidin-1-yl)-2-morpholinoethan-1-one] | 0.0001 to 10 | 0.0001 to 10 | 0.0001 to 10 | 0.0001 to 10
4 | CC(C)(C1CCN(C(=O)CC2CCOCC2)CC1)C(O)c1cc(Cl)cc2cn[nH]c12 (stereo not shown) [Compound P-0443, 1-(4-(1-(5-chloro-1H-indazol-7-yl)-1-hydroxy-2-methylpropan-2-yl)piperidin-1-yl)-2-(tetrahydro-2H-pyran-4-yl)ethan-1-one] | 0.0001 to 10 | 0.0001 to 10 | 0.0001 to 10 | 0.0001 to 10
5 | CC(C)(C1CCN(C(=O)Nc2ccc(C#N)cc2)CC1)[C@H](O)c1cc(Cl)cc2cn[nH]c12 [Compound P-0447, (S)-4-(1-(5-chloro-1H-indazol-7-yl)-1-hydroxy-2-methylpropan-2-yl)-N-(4-cyanophenyl) piperidine-1-carboxamide] | 0.0001 to 10 | 0.0001 to 10 | 0.0001 to 10 | 0.0001 to 10
6 | CC(C)(C1CCN(C(=O)CC2CCS(=O)(=O)CC2)CC1)C(O)c1cc(Cl)cc2cn[nH]c12 (stereo not drawn) [Compound P-0448, 1-(4-(1-(5-chloro-1H-indazol-7-yl)-1-hydroxy-2-methylpropan-2-yl)piperidin-l-yl)-2-(1,1-dioxidotetrahydro-2H-thiopyran-4-yl)ethan-1-one] | 0.0001 to 10 | 0.0001 to 10 | 0.0001 to 10 | 0.0001 to 10

Now from value to compound:

Row | IC50 [1] [µM] | IC50 [2] [µM] | IC50 [3] [µM] | IC50 [4] [µM] | SMILES
7 | 0.0001 to 10 | 0.0001 to 10 | 0.0001 to 10 | 0.0001 to 10 | CNC(=O)N1[C@@H]2CC[C@H]1C[C@@H](C(C)(C)C(O)c1cc(Cl)cc3cn[nH]c13)C2 (stereo partly drawn) [Compound P-0442, (1R,3r,5S)-3-(1-(5-chloro-1H-indazol-7-yl)-1-hydroxy-2-methylpropan-2-yl)-N-methyl-8-azabicyclo[3.2.1] octane-8-carboxamide]
8 | 0.0001 to 10 | 0.0001 to 10 | 0.0001 to 10 | 0.0001 to 10 | CCC(=O)N1CCC(C(C)(C)[C@H](O)c2cc(Cl)cc3cn[nH]c23)CC1 [Compound P-0444, (S)-1-(4-(1-(5-chloro-1H-indazol-7-yl)-1-hydroxy-2-methylpropan-2-yl)piperidin-1-yl)propan-l-one]
9 | 0.0001 to 10 | 0.0001 to 10 | 0.0001 to 10 | 0.0001 to 10 | CNC(=O)N1CCC(C(C)(C)[C@H](O)c2cc(Cl)cc3cn[nH]c23)CC1 [Compound P-0445, (S)-4-(1-(5-chloro-1H-indazol-7-yl)-1-hydroxy-2-methylpropan-2-yl)-N-methylpiperidine-1-carboxamide]
10 | 0.0001 to 10 | 0.0001 to 10 | 0.0001 to 10 | 0.0001 to 10 | COCCNC(=O)N1CCC(C(C)(C)[C@H](O)c2cc(Cl)cc3cn[nH]c23)CC1 [Compound P-0446, (S)-4-(1-(5-chloro-1H-indazol-7-yl)-1-hydroxy-2-methylpropan-2-yl)-N-(2-methoxyethyl) piperidine-1-carboxamide]
